From ChEMBL document CHEMBL3507680, “University of Dundee, Gates Library screen for HepG2 cell viability”

Assay: Human HepG2 cell viability assay in 384 well format
Type: toxicity, cell-based
Set-up: dose 125 nL, time 70.5 hour; cytotoxicity at 70.5 h: concentration not given beside the values
Conditions: HepG2 cells, read-out: Inhibition

Question: For `CCCN(CC)C(=O)c1ncn2c1CN(C)S(=O)(=O)c1ccccc1-2`, which cytotoxicity at 70.5 h is on record?
Answer: 1.29%

Question: For `O=C1CO[C@@H]2CN(C3CCOCC3)C[C@H]2N1Cc1ccncc1`, which cytotoxicity at 70.5 h is on record?
Answer: 4.06%

Question: For `O=C1CCCN1Cc1ncn2c1CN(C(=O)NC1CCCC1)CCC2`, which cytotoxicity at 70.5 h is on record?
Answer: 5.73%

Question: For `Cc1csc(CN2CCC[C@]3(C[C@H](OCC4CC4)CO3)C2)n1`, which cytotoxicity at 70.5 h is on record?
Answer: 1.27%

Question: With `Cc1nc(CN2C(=O)C[C@@H]3[C@@H]2CCN3S(=O)(=O)C2CC2)cs1` as the molecule, how does the cytotoxicity at 70.5 h read?
Answer: 19.1%

Question: For `Cc1nc(CN2C[C@@H]3CN(C(=O)c4ccoc4C)C[C@@H]3C2)cs1`, which cytotoxicity at 70.5 h is on record?
Answer: 28.2%

Question: With `O=C1CCCN1Cc1ncn2c1CN(C(=O)NC1CCCCC1)CCC2` as the molecule, how does the cytotoxicity at 70.5 h read?
Answer: 27.2%

Question: Which cytotoxicity at 70.5 h does the source give for `COCCO[C@@H]1CCN(C(=O)c2ccnnc2)[C@H]1Cc1cnn(C)c1` here?
Answer: -116%

Question: For `COCCN1C[C@@H]2CN(c3ncc(F)cn3)C[C@@H]2C1=O`, which cytotoxicity at 70.5 h is on record?
Answer: -47.2%

Question: Which cytotoxicity at 70.5 h does the source give for `COCCO[C@H]1CCN(C(=O)c2ccoc2C)[C@H]1Cc1cnn(C)c1` here?
Answer: -114%

Question: Which cytotoxicity at 70.5 h does the source give for `COCCC(=O)N1CCC2(CCCN2Cc2cccc(Cl)c2)C1` (configuration not stated) here?
Answer: -53.8%

Question: For `COCCO[C@@H]1CCN(C(=O)c2occc2C)[C@H]1Cc1cnn(C)c1`, which cytotoxicity at 70.5 h is on record?
Answer: -90.5%

Question: Which cytotoxicity at 70.5 h does the source give for `COc1nn(C)c2c1CCCN(C(=O)c1cccs1)C2` here?
Answer: -23.5%

Question: Which cytotoxicity at 70.5 h does the source give for `O=C(C1CCCC1)N1CCO[C@H]2[C@H](OCC3CCOCC3)CC[C@@H]21` here?
Answer: -5.12%

Question: For `COCC1c2c(cnn2C)CCN1Cc1ccsc1` (configuration not stated), which cytotoxicity at 70.5 h is on record?
Answer: -22.9%

Question: For `Cn1cc(-c2cnc(N3CCCC3)nc2)cc1C(=O)N1CCOCC1`, which cytotoxicity at 70.5 h is on record?
Answer: -27.4%

Question: Which cytotoxicity at 70.5 h does the source give for `O=C(C1CCOCC1)N1CCO[C@H]2[C@@H](OCC3CC3)CC[C@@H]21` here?
Answer: -6.56%

Question: Which cytotoxicity at 70.5 h does the source give for `Cn1nc(C(=O)NCc2ccccc2C(F)(F)F)c2c1CCS(=O)(=O)C2` here?
Answer: -5.12%

Question: With `COc1ccc(CNC(=O)c2nn(C)c3c2CS(=O)(=O)CC3)cc1` as the molecule, how does the cytotoxicity at 70.5 h read?
Answer: -7.69%

Question: For `CCC(C)NC(=O)c1nn(C)c(NC(=O)c2ccccc2OC)c1F` (configuration not stated), which cytotoxicity at 70.5 h is on record?
Answer: -10.8%

Question: Which cytotoxicity at 70.5 h does the source give for `CCC1=NC(SCC(=O)c2ccc(OC)cc2)c2cc(CC)sc2N1` (configuration not stated) here?
Answer: 12.2%

Question: With `CCNS(=O)(=O)c1ccc2c(c1)c(=O)n(CC)c(=O)n2CC` as the molecule, how does the cytotoxicity at 70.5 h read?
Answer: 2%

Question: With `Cc1cc2c(cc1NC(N)=O)OCO2` as the molecule, how does the cytotoxicity at 70.5 h read?
Answer: -4.79%

Question: Which cytotoxicity at 70.5 h does the source give for `Cc1c(S(=O)(=O)N2CCOCC2)cc2c(C)cc(=O)n3c2c1CCC3` here?
Answer: 0.511%

Question: With `CN(C)S(=O)(=O)Nc1ccc(Oc2ccc3c(c2)OCO3)cc1` as the molecule, how does the cytotoxicity at 70.5 h read?
Answer: -5.35%

Question: Which cytotoxicity at 70.5 h does the source give for `COc1ccc(C2=Nn3c(CN)nnc3-c3ccccc3C2)cc1` here?
Answer: -18.7%

Question: For `O=C(NCc1cccs1)c1[nH]nc2c1CS(=O)(=O)CC2`, which cytotoxicity at 70.5 h is on record?
Answer: -0.606%

Question: Which cytotoxicity at 70.5 h does the source give for `CCn1nccc1CNc1[nH]cnc2nncc1-2` here?
Answer: -20.2%

Question: Which cytotoxicity at 70.5 h does the source give for `CCn1nccc1CN(C)c1[nH]cnc2nc(C)nc1-2` here?
Answer: -5.53%

Question: Which cytotoxicity at 70.5 h does the source give for `CCn1ncc(Nc2[nH]cnc3nc(C)nc2-3)c1C` here?
Answer: -6.65%

Question: With `O=C1CNc2ncnc(N3CCN(Cc4cccc(F)c4)CC3)c2N1` as the molecule, how does the cytotoxicity at 70.5 h read?
Answer: 17.9%

Question: With `O=C1CNc2ncnc(Nc3cnn(Cc4cccc(F)c4)c3)c2N1` as the molecule, how does the cytotoxicity at 70.5 h read?
Answer: -16.6%

Question: Which cytotoxicity at 70.5 h does the source give for `O=C1CNc2ncnc(N3CCN(c4ccccc4F)CC3)c2N1` here?
Answer: 16.1%

Question: Which cytotoxicity at 70.5 h does the source give for `CCCc1noc(C2CCN(C(=O)C3CCCO3)CC2)n1` (configuration not stated) here?
Answer: -13.7%

Question: For `CC(C)c1noc(C2CCN(S(=O)(=O)c3cccs3)CC2)n1`, which cytotoxicity at 70.5 h is on record?
Answer: -0.463%

Question: With `CCc1noc(C2CCCCN2C(=O)c2cccs2)n1` (configuration not stated) as the molecule, how does the cytotoxicity at 70.5 h read?
Answer: -4.33%

Question: For `CCc1noc(C2CCCCN2C(=O)c2ccc3c(c2)OCO3)n1` (configuration not stated), which cytotoxicity at 70.5 h is on record?
Answer: -4.04%

Question: For `CCS(=O)(=O)N1CCCCC1c1nc(C(C)C)no1` (configuration not stated), which cytotoxicity at 70.5 h is on record?
Answer: 7.03%

Question: With `Cc1nn(C)c2cnn(CC(=O)NCc3ccc(F)cc3)c12` as the molecule, how does the cytotoxicity at 70.5 h read?
Answer: 12.4%

Question: Which cytotoxicity at 70.5 h does the source give for `CC(c1ccncc1)N1Cc2nc(N(C)C)ncc2C1=O` (configuration not stated) here?
Answer: -2.18%

Question: For `CC(C)Cc1noc(C2CCN(C(=O)c3cccs3)CC2)n1`, which cytotoxicity at 70.5 h is on record?
Answer: -0.0683%

Question: With `Cc1nn(C)c2cnn(CC(=O)NCc3ccc4c(c3)OCO4)c12` as the molecule, how does the cytotoxicity at 70.5 h read?
Answer: -3.63%

Question: With `Cc1nn(C)c(C)c1CN1CCN(CC2(O)CCCN(C)C2)CC1` (configuration not stated) as the molecule, how does the cytotoxicity at 70.5 h read?
Answer: -10.5%

Question: With `Cc1nn(C)c2cnn(Cc3ccc(C(=O)NC4CC4)cc3)c12` as the molecule, how does the cytotoxicity at 70.5 h read?
Answer: -5.97%

Question: For `Cc1nn(C)c2cnn(CC(=O)NCc3ccccc3F)c12`, which cytotoxicity at 70.5 h is on record?
Answer: -8.04%

Question: Which cytotoxicity at 70.5 h does the source give for `Cc1nc(CN2C(=O)CC[C@@H]3[C@H]2CCN3C2CCOCC2)cs1` here?
Answer: -2.88%

Question: Which cytotoxicity at 70.5 h does the source give for `Cc1occc1C(=O)N1CCC2(CCN(Cc3ccccn3)C2=O)C1` (configuration not stated) here?
Answer: 5.42%

Question: With `Cc1cnc(C(=O)N2CCC3(CCN(Cc4ccccn4)C3=O)C2)cn1` (configuration not stated) as the molecule, how does the cytotoxicity at 70.5 h read?
Answer: 6.84%

Question: For `CCC(C)(C)NC(=O)c1ncn2c1CN(C)S(=O)(=O)c1ccccc1-2`, which cytotoxicity at 70.5 h is on record?
Answer: 20.8%

Question: With `Cc1ccc(CN2CCC3(CCC3NC(=O)c3ccn(C)c3)CC2)s1` (configuration not stated) as the molecule, how does the cytotoxicity at 70.5 h read?
Answer: 0.0423%

Question: For `Cn1ccc(C(=O)NC2CCC23CCN(Cc2ccc(F)cc2)CC3)c1` (configuration not stated), which cytotoxicity at 70.5 h is on record?
Answer: -0.822%

Question: Which cytotoxicity at 70.5 h does the source give for `O=C(Nc1cnccn1)[C@@H]1CC[C@@H]2[C@@H](CCN2Cc2nccs2)O1` here?
Answer: -4.62%

Question: For `Cc1csc(CN2CCC[C@]3(C[C@@H](OCC4CC4)CO3)C2)n1`, which cytotoxicity at 70.5 h is on record?
Answer: 24.4%

Question: For `Cc1ccc(CN2CCn3cc(CNC(=O)c4cnn(C)c4)nc3C2)s1`, which cytotoxicity at 70.5 h is on record?
Answer: -102%

Question: For `CN1CC(=O)N(c2ccsc2)CC12CCN(S(=O)(=O)c1ccccc1)C2` (configuration not stated), which cytotoxicity at 70.5 h is on record?
Answer: -109%

Question: Which cytotoxicity at 70.5 h does the source give for `COCCNC(=O)c1cc(-c2cc[nH]n2)n2ccccc12` here?
Answer: -117%

Question: For `Cn1cccc1C(=O)NCc1cn2c(n1)CN(CC1CCOCC1)CC2`, which cytotoxicity at 70.5 h is on record?
Answer: -78.7%

Question: With `Cc1cnc(N2CC[C@@H]3O[C@@H](COCC(=O)N(C)C)CC[C@@H]32)nc1` as the molecule, how does the cytotoxicity at 70.5 h read?
Answer: -99.7%

Question: Which cytotoxicity at 70.5 h does the source give for `Cc1cc(C)cc(CN2CCC3(CC2)CC(Nc2ncccn2)CO3)c1` (configuration not stated) here?
Answer: -68.4%

Question: Which cytotoxicity at 70.5 h does the source give for `c1cnc(NC2COC3(CCN(Cc4ccoc4)CC3)C2)nc1` (configuration not stated) here?
Answer: -97.7%

Question: For `c1cnc(NCc2nnn3c2CN(Cc2ccco2)CCC3)nc1`, which cytotoxicity at 70.5 h is on record?
Answer: -109%

Question: With `Cn1cc(C(=O)NCc2cn3c(n2)CN(C2CCOCC2)CC3)cn1` as the molecule, how does the cytotoxicity at 70.5 h read?
Answer: -109%

Question: Which cytotoxicity at 70.5 h does the source give for `C1CC(CO[C@@H]2CC[C@H]3[C@H]2OCCN3CC2CCOCC2)CCO1` here?
Answer: -81.4%

Question: For `Cc1nc[nH]c1CN1CCC2(CC1)CC(Nc1ncccn1)CO2` (configuration not stated), which cytotoxicity at 70.5 h is on record?
Answer: -94.8%

Question: With `O=C(Nc1cnccn1)[C@@H]1COC[C@H]2CN(C3CCC3)C[C@H]21` as the molecule, how does the cytotoxicity at 70.5 h read?
Answer: -87.9%

Question: Which cytotoxicity at 70.5 h does the source give for `CCO[C@@H]1CC[C@H]2[C@H]1OCCN2CC1CCOCC1` here?
Answer: 38.8%

Question: With `CN(C)C(=O)COC[C@@H]1CC[C@H]2[C@H](CCN2c2ccccn2)O1` as the molecule, how does the cytotoxicity at 70.5 h read?
Answer: 44.1%

Question: For `COCC1CN(Cc2ccoc2)Cc2nn(CC3CC3)cc21` (configuration not stated), which cytotoxicity at 70.5 h is on record?
Answer: 18.3%

Question: With `CCC(C)N1CCC2(CC1)CN(c1cncnc1)C(=O)CO2` (configuration not stated) as the molecule, how does the cytotoxicity at 70.5 h read?
Answer: -15.3%

Question: Which cytotoxicity at 70.5 h does the source give for `CN(C)C(=O)CC1CC2(CCN(Cc3cccs3)CC2)c2ccccc21` (configuration not stated) here?
Answer: -20%

Question: For `CCN1CC2(CC1=O)CN(Cc1cnn(C)c1)CCN(C(=O)N(C)C)C2` (configuration not stated), which cytotoxicity at 70.5 h is on record?
Answer: 9.62%

Question: Which cytotoxicity at 70.5 h does the source give for `O=C1COC2(CCN(Cc3ccsc3)CC2)CN1` here?
Answer: -4.53%

Question: Which cytotoxicity at 70.5 h does the source give for `COc1ccccc1CN1C[C@@H]2COC[C@]2(COc2cccnc2)C1` here?
Answer: -116%

Question: With `c1csc(CN2C[C@@H]3COC[C@]3(COCc3ccncc3)C2)c1` as the molecule, how does the cytotoxicity at 70.5 h read?
Answer: 28.4%

Question: With `Cc1cccc(C(=O)N2C[C@@H](OCc3ccncc3)[C@@H]3OCCC[C@@H]32)n1` as the molecule, how does the cytotoxicity at 70.5 h read?
Answer: -12.5%

Question: For `Cc1cccc(CN2C[C@@H]3COC[C@]3(COc3cccnc3)C2)n1`, which cytotoxicity at 70.5 h is on record?
Answer: -120%

Question: With `CN(C)Cc1nnn2c1CN(Cc1cccnc1)CCC2` as the molecule, how does the cytotoxicity at 70.5 h read?
Answer: -83.6%
